From patent publication US20040229268A1, “Method and kit for identifying antibiotic-resistant microorganisms” (priority 2003, published 2004)
In brackets after ≈: the same amount, converted by molar mass.

Test system: Staphylococcus isolates
Assay: Oxacillin Minimum Inhibitory Concentration (Ox MIC)
Assay type: cell-based, S. aureus and other Staphylococcus spp.

Cc1onc(-c2ccccc2)c1C(=O)N[C@@H]1C(=O)N2[C@@H]1SC(C)(C)[C@@H]2C(=O)O [Oxacillin]
MIC (Staphylococcus, Pos Control GP1217): > 16 µg/mL | MIC (Staphylococcus, Table 14, S. hemoliticus, 1 isolate): ≤ 0.25 µg/mL | MIC (Staphylococcus, Table 14, S. hyicus-hyicus, 1 isolate): ≤ 0.25 µg/mL | MIC (Staphylococcus, Table 14, S. intermedius, 1 isolate): ≤ 0.25 µg/mL | MIC (Staphylococcus, clinical isolate GP21, determined at the collection site): < 0.25 µg/mL | MIC (Staphylococcus, clinical isolate GP22, determined at the collection site): 0.5 µg/mL (≈ 1.25 µM) | MIC (Staphylococcus, clinical isolate GP23, determined at the collection site): < 0.25 µg/mL | MIC (Staphylococcus, clinical isolate GP24, determined at the collection site): > 16 µg/mL | MIC (Staphylococcus, clinical isolate GP25, determined at the collection site): > 16 µg/mL | MIC (Staphylococcus, clinical isolate GP26, determined at the collection site): < 0.25 µg/mL | MIC (Staphylococcus, clinical isolate GP27, determined at the collection site): < 0.25 µg/mL | MIC (Staphylococcus, clinical isolate GP28, determined at the collection site): 1 µg/mL (≈ 2.49 µM) | MIC (Staphylococcus, clinical isolate GP29, determined at the collection site): > 16 µg/mL | MIC (Staphylococcus, clinical isolate GP30, determined at the collection site): < 0.25 µg/mL | MIC (Staphylococcus, clinical isolate GP31, determined at the collection site): > 16 µg/mL | MIC (Staphylococcus, clinical isolate GP32, determined at the collection site): < 0.25 µg/mL | MIC (Staphylococcus, clinical isolate GP33, determined at the collection site): > 16 µg/mL | MIC (Staphylococcus, clinical isolate GP34, determined at the collection site): < 0.25 µg/mL | MIC (Staphylococcus, clinical isolate GP35, determined at the collection site): > 16 µg/mL | MIC (Staphylococcus, clinical isolate GP36, determined at the collection site): < 0.25 µg/mL | MIC (Staphylococcus, clinical isolate GP37, determined at the collection site): > 16 µg/mL | MIC (Staphylococcus, clinical isolate GP39, determined at the collection site): < 0.25 µg/mL | MIC (Staphylococcus, clinical isolate GP40, determined at the collection site): < 0.25 µg/mL | MIC (Table 14, ATCC MRSA, first isolate): 8 µg/mL (≈ 19.9 µM) | MIC (Table 14, ATCC MRSA, second isolate): 16 µg/mL (≈ 39.9 µM) | MIC (Table 14, ATCC MSSA, 1 isolate): 1 µg/mL (≈ 2.49 µM) | MIC (Table 14, ATCC MSSA, group of 4 isolates): 0.5 µg/mL (≈ 1.25 µM) | MIC (Table 14, ATCC MSSA, group of 6 isolates): ≤ 0.25 µg/mL | MIC (Table 14, Clinical MRSA, group of 8 isolates): 16 µg/mL (≈ 39.9 µM) | MIC (Table 14, Clinical MRSA, group of 13 isolates): 8 µg/mL (≈ 19.9 µM) | MIC (Table 14, Clinical MRSA, group of 14 isolates, provided by an outside laboratory): 4 µg/mL (≈ 9.96 µM) | MIC (Table 14, Clinical MRSA, group of 107 isolates): > 16 µg/mL | MIC (Table 14, Clinical MSSA, group of 8 isolates): 2 µg/mL (≈ 4.98 µM) | MIC (Table 14, Clinical MSSA, group of 13 isolates): 1 µg/mL (≈ 2.49 µM) | MIC (Table 14, Clinical MSSA, group of 28 isolates): 0.5 µg/mL (≈ 1.25 µM) | MIC (Table 14, Clinical MSSA, group of 99 isolates): ≤ 0.25 µg/mL | MIC (Table 14, S. epidermidis, 1 isolate (mecA(+)), first): 4 µg/mL (≈ 9.96 µM) | MIC (Table 14, S. epidermidis, 1 isolate (mecA(+)), second): > 16 µg/mL | MIC (Table 14, S. epidermidis, group of 2 isolates (mecA(−))): ≤ 0.25 µg/mL | MIC (Table 14, S. hominis, 1 isolate): ≤ 0.25 µg/mL | MIC (Table 14, S. saprophyticus, 1 isolate): 0.5 µg/mL (≈ 1.25 µM) | MIC (Table 14, S. simulans, 1 isolate): ≤ 0.25 µg/mL | MIC (Table 14, S. warneri, 1 isolate): ≤ 0.25 µg/mL | Ox MIC (specimen 10 (mecA PCR Neg)): 8 µg/mL | Ox MIC (specimen 101 (mecA PCR Neg)): 4 µg/mL | Ox MIC (specimen 102 (mecA PCR Pos)): 4 µg/mL | Ox MIC (specimen 103 (mecA PCR Neg)): 4 µg/mL | Ox MIC (specimen 104 (mecA PCR Neg)): 2 µg/mL | Ox MIC (specimen 105 (mecA PCR Neg)): 2 µg/mL | Ox MIC (specimen 106 (mecA PCR Neg)): 2 µg/mL | Ox MIC (specimen 139 (mecA PCR Pos)): 4 µg/mL | Ox MIC (specimen 140 (mecA PCR Pos)): 16 µg/mL | Ox MIC (specimen 142 (mecA PCR Pos)): 4 µg/mL | Ox MIC (specimen 145 (mecA PCR Neg)): 4 µg/mL | Ox MIC (specimen 148 (mecA PCR Pos)): 4 µg/mL | Ox MIC (specimen 155 (mecA PCR Neg)): 4 µg/mL | Ox MIC (specimen 164 (mecA PCR Neg)): 2 µg/mL | Ox MIC (specimen 178 (mecA PCR Pos)): 2 µg/mL | Ox MIC (specimen 188 (mecA PCR Pos)): 2 µg/mL | Ox MIC (specimen 270 (mecA PCR Pos)): <0.25 µg/mL | Ox MIC (specimen #99 (mecA PCR Pos), reported by outside laboratory): 4 µg/mL | Ox MIC (specimen #100 (mecA PCR Neg), reported by outside laboratory): 4 µg/mL
